Laboratory results as given in patent publication US8476197B2, “Aminopropenoates as fungicides” (priority 2009, dated 2013).
Read-outs that look alike come from different tables or passages of the source. Marks after values point to notes of the source that are not given here.

Compound: COC(=O)C(C#N)=C(Nc1cccc(SC)c1)c1sc(C)nc1C(F)(F)F [Compound 504]
- Log P (pH 2.7): 3.53^[a]

Compound: CCOC(=O)C(C#N)=C(Nc1cccc(SC)c1)c1sc(C)nc1C(F)(F)F [Compound 505]
- Log P (pH 2.7): 3.89^[a]

Compound: CCOC(=O)C(C#N)=C(Nc1ccccc1SC)c1cn(C)nc1OC [Compound 507]
- Log P (pH 2.7): 3.06^[a]

Compound: CCOC(=O)C(C#N)=C(NC1(c2c(F)cccc2F)CC1)c1cn(C)nc1OC [Compound 508]
- Log P (pH 2.7): 3.02^[a]

Compound: CCOC(=O)C(C#N)=C(Nc1ccc2ncsc2c1)c1sccc1C(F)(F)F [Compound 509]
- Log P (pH 2.7): 3.21^[a]

Compound: CCOC(=O)C(C#N)=C(Nc1ccc(Cl)cc1)c1sccc1C(F)(F)F [Compound 510]
- Log P (pH 2.7): 4.14^[a]

Compound: CCOC(=O)C(C#N)=C(Nc1cccc(Cl)c1)c1sccc1C(F)(F)F [Compound 511]
- Log P (pH 2.7): 4.14

Compound: CCOC(=O)C(C#N)=C(Nc1ccc(Cl)cc1)c1sc(C)nc1C(F)(F)F [Compound 512]
- Log P (pH 2.7): 3.92^[a]

Compound: CCOC(=O)C(C#N)=C(Nc1cccc(Cl)c1)c1sc(C)nc1C(F)(F)F [Compound 513]
- Log P (pH 2.7): 3.89^[a]

Compound: COC(=O)C(C#N)=C(Nc1ccccc1OC(C)C)c1sc(C)nc1C(F)(F)F [Compound 514]
- Log P (pH 2.7): 3.96^[a]

Compound: COC(=O)C(C#N)=C(Nc1ccc(OC(F)F)cc1)c1sc(C)nc1C(F)(F)F [Compound 515]
- Log P (pH 2.7): 3.31^[a]

Compound: COC(=O)C(C#N)=C(Nc1ccc(SC)cc1)c1sc(C)nc1C(F)(F)F [Compound 516]
- Log P (pH 2.7): 3.53^[a]

Compound: COC(=O)C(C#N)=C(Nc1ccc(Cl)cc1)c1sc(C)nc1C(F)(F)F [Compound 517]
- Log P (pH 2.7): 3.55^[a]

Compound: COC(=O)C(C#N)=C(Nc1cccc(Cl)c1)c1sc(C)nc1C(F)(F)F [Compound 518]
- Log P (pH 2.7): 3.53^[a]

Compound: CCOC(=O)C(C#N)=C(Nc1ccccc1OC(C)C)c1sc(C)nc1C(F)(F)F [Compound 519]
- Log P (pH 2.7): 4.36^[a]

Compound: CCOC(=O)C(C#N)=C(Nc1ccccc1SC)c1cccnc1OC [Compound 522]
- Log P (pH 2.3): 3.32^[c]; 3.32^[b]
- Log P (pH 7.5): 3.32^[c]; 3.32^[b]

Compound: CCOC(=O)C(C#N)=C(Nc1ccccc1OC(C)C)c1ccsc1Br [Compound 523]
- Log P (pH 2.7): 4.46^[a]

Compound: CCOC(=O)C(C#N)=C(Nc1ccc(SC)cc1)c1ccsc1Br [Compound 524]
- Log P (pH 2.7): 4.01^[a]

Compound: CCOC(=O)C(C#N)=C(Nc1ccc(OC)cc1)c1ccsc1Br [Compound 525]
- Log P (pH 2.7): 3.6^[a]

Compound: CCOC(=O)C(C#N)=C(Nc1ccccc1SC)c1sc(Cl)nc1Cl [Compound 527]
- Log P (pH 2.7): 4.14^[a]

Compound: CCOC(=O)C(C#N)=C(NC1(c2c(F)cccc2F)CC1)c1sc(Cl)nc1Cl [Compound 528]
- Log P (pH 2.7): 4.14^[a]

Compound: CCOC(=O)C(C#N)=C(Nc1ccccc1OC(F)(F)F)c1cccnc1Cl [Compound 529]
- Log P (pH 2.3): 3.52
- Log P (pH 7.5): 3.46

Compound: CCOC(=O)C(C#N)=C(NC1(c2c(F)cccc2F)CC1)c1cn(C)nc1C(F)(F)F [Compound 530]
- Log P (pH 2.7): 3.48^[a]

Compound: CCOC(=O)C(C#N)=C(Nc1ccc(OC(F)F)cc1)c1ccsc1Br [Compound 532]
- Log P (pH 2.7): 3.73^[a]

Compound: CCOC(=O)C(C#N)=C(Nc1ccc2ncsc2c1)c1ccsc1Br [Compound 533]
- Log P (pH 2.7): 3.11^[a]

Compound: CCOC(=O)C(C#N)=C(Nc1ccc(Cl)cc1)c1ccsc1Br [Compound 534]
- Log P (pH 2.7): 4.11^[a]

Compound: CCOC(=O)C(C#N)=C(NCc1ccccc1SC)c1ccsc1Br [Compound 535]
- Log P (pH 2.7): 4.01^[a]

Compound: CCOC(=O)C(C#N)=C(Nc1ccc(C(C)C)cc1)c1ccsc1Br [Compound 536]
- Log P (pH 2.7): 4.78^[a]

Compound: CCOC(=O)C(C#N)=C(Nc1cccc(SC)c1)c1ccsc1Br [Compound 537]
- Log P (pH 2.7): 4.04^[a]

Compound: CCOC(=O)C(C#N)=C(Nc1cccc(Cl)c1)c1ccsc1Br [Compound 539]
- Log P (pH 2.7): 4.09^[a]

Compound: CCOC(=O)C(C#N)=C(Nc1ccc(N(C)C)cc1)c1ccsc1Br [Compound 540]
- Log P (pH 2.7): 3.76^[a]

Compound: CCOC(=O)C(C#N)=C(NC1(c2c(F)cccc2F)CC1)c1cccnc1Cl [Compound 543]
- Log P (pH 2.7): 3.39^[a]

Compound: CCOC(=O)C(C#N)=C(NC1(c2c(F)cccc2F)CC1)c1cn(C)cc1C(F)(F)F [Compound 547]
- Log P (pH 2.7): 3.85^[a]

Compound: CCOC(=O)C(C#N)=C(Nc1ccccc1SC)c1cn(C)cc1C(F)(F)F [Compound 548]
- Log P (pH 2.7): 3.73^[a]

Compound: CCOC(=O)C(C#N)=C(NC(C)(C)c1ccccc1)c1cn(C)nc1C(F)F [Compound 551]
- Log P (pH 2.7): 3.33^[a]

Compound: CCOC(=O)C(C#N)=C(NCc1ccc(Cl)cc1)c1cn(C)nc1C(F)F [Compound 555]
- Log P (pH 2.7): 3.31^[a]

Compound: CCOC(=O)C(C#N)=C(NC1(c2c(F)cccc2F)CC1)c1cn(C)nc1C(F)F [Compound 559]
- Log P (pH 2.7): 3.17^[a]

Compound: CCOC(=O)C(C#N)=C(NC1(COc2ccccc2)CC1)c1cccnc1Cl [Compound 560]
- Log P (pH 2.7): 3.6^[a]

Compound: CCOC(=O)C(C#N)=C(NC1(COc2ccccc2)CC1)c1cn(C)nc1C(F)F [Compound 561]
- Log P (pH 2.7): 3.37^[a]

Compound: COC(=O)C(C#N)=C(NC(C)C(N)=O)c1cccnc1Cl (centres unmarked) [Compound 563]
- Log P (pH 7.5): 1.18

Compound: COC(=O)C(C#N)=C(NCC(N)=O)c1cccnc1Cl [Compound 569]
- Log P (pH 2.3): 1.14
- Log P (pH 7.5): 0.94

Compound: COC(=O)C(C#N)=C(NC(CO)C(N)=O)c1cccnc1Cl (centres unmarked) [Compound 570]
- Log P (pH 2.3): 0.97
- Log P (pH 7.5): 0.79

Compound: COC(=O)C(C#N)=C(NC(C(N)=O)C(C)C)c1cccnc1Cl (centres unmarked) [Compound 572]
- Log P (pH 7.5): 1.58

Compound: COC(=O)C(C#N)=C(NC(C)CSC)c1cccnc1Cl (centres unmarked) [Compound 575]
- Log P (pH 7.5): 2.38

Compound: CCSCC(C)NC(=C(C#N)C(=O)OC)c1cccnc1Cl (centres unmarked) [Compound 577]
- Log P (pH 7.5): 2.72

Compound: COC(=O)C(C#N)=C(NC(C(=O)OC)C(C)C)c1cccnc1Cl (centres unmarked) [Compound 580]
- Log P (pH 7.5): 2.56

Compound: COC(=O)C(NC(=C(C#N)C(=O)OCC(F)(F)F)c1cccnc1Cl)C(C)C (centres unmarked) [Compound 581]
- Log P (pH 7.5): 3.14

Compound: CCOC(=O)C(C#N)=C(NC(CC)C(=O)OC)c1cccnc1Cl (centres unmarked) [Compound 582]
- Log P (pH 7.5): 2.27

Compound: CSCC(C)NC(=C(C#N)C(=O)OCC(F)(F)F)c1cccnc1Cl (centres unmarked) [Compound 585]
- Log P (pH 7.5): 2.98

Compound: CCOC(=O)C(C#N)=C(NC(C)CSCC)c1cccnc1Cl (centres unmarked) [Compound 586]
- Log P (pH 7.5): 3.06

Compound: CCOC(=O)C(C#N)=C(NC(C)CSC)c1cccnc1Cl (centres unmarked) [Compound 593]
- Log P (pH 7.5): 2.71

Compound: CCOC(=O)C(C#N)=C(NC(C)CN(C)C)c1conc1C (centres unmarked) [Compound 594]
- Log P (pH 2.7): 0.76^[a]

Compound: CCOC(=O)C(C#N)=C(NC(C)C(N)=O)c1conc1C (centres unmarked) [Compound 596]
- Log P (pH 2.7): 1.41^[a]

Compound: COC(=O)C(C#N)=C(NC(C)C(N)=O)c1cn(C)nc1C(F)F (centres unmarked) [Compound 598]
- Log P (pH 2.7): 1.3^[a]

Compound: CCOC(=O)C(C#N)=C(NC(C)C(=O)NC)c1cn(C)nc1C(F)F (centres unmarked) [Compound 599]
- Log P (pH 2.7): 1.66^[a]

Compound: CNC(=O)C(C)NC(=C(C#N)C(=O)OC)c1cn(C)nc1C(F)F (centres unmarked) [Compound 601]
- Log P (pH 2.7): 1.38^[a]

Compound: CCOC(=O)C(C#N)=C(NC(C)CN(C)C)c1cn(C)nc1C(F)(F)F (centres unmarked) [Compound 602]
- Log P (pH 2.7): 1.36^[a]

Compound: CCOC(=O)C(C#N)=C(NCC(C)N)c1c(C)nn(C)c1Cl (centres unmarked) [Compound 603]
- Log P (pH 2.7): 0.96^[a]

Compound: CCOC(=O)C(C#N)=C(NC(C)CN(C)C)c1c(C)nn(C)c1Cl (centres unmarked) [Compound 605]
- Log P (pH 2.7): 1.13^[a]

Compound: CCOC(=O)C(C#N)=C(NC(C)C(=O)NC)c1c(C)nn(C)c1Cl (centres unmarked) [Compound 606]
- Log P (pH 2.7): 1.7^[a]

Compound: CCOC(=O)C(C#N)=C(NC(C)C(N)=O)c1c(C)nn(C)c1Cl (centres unmarked) [Compound 607]
- Log P (pH 2.7): 1.58^[a]

Compound: CCOC(=O)C(C#N)=C(NC(C)CN(C)C)c1sccc1C(F)(F)F (centres unmarked) [Compound 608]
- Log P (pH 2.7): 1.63^[a]

Compound: CCOC(=O)C(C#N)=C(NCC(C)N)c1sccc1C(F)(F)F (centres unmarked) [Compound 609]
- Log P (pH 2.7): 1.42^[a]

Compound: CCOC(=O)C(C#N)=C(NC(C)C(N)=O)c1sccc1C(F)(F)F (centres unmarked) [Compound 610]
- Log P (pH 2.7): 2.07^[a]

Compound: CCOC(=O)C(C#N)=C(NC(C)C(N)=O)c1sccc1Br (centres unmarked) [Compound 611]
- Log P (pH 2.7): 1.9^[a]

Compound: CCOC(=O)C(C#N)=C(NC(C)C(=O)NC)c1sccc1Br (centres unmarked) [Compound 612]
- Log P (pH 2.7): 2.07^[a]

Compound: CCOC(=O)C(C#N)=C(NC(C)CN(C)C)c1ccsc1Br (centres unmarked) [Compound 613]
- Log P (pH 2.7): 1.44^[a]

Compound: CCOCC(C)NC(=C(C#N)C(=O)OCC)c1cc(C)oc1C (centres unmarked) [Compound 617]
- Log P (pH 2.7): 3.42^[a]

Compound: CCOC(=O)C(C#N)=C(NC1(C(=O)OC(C)CC)CC1)c1cc(C)oc1C (centres unmarked) [Compound 618]
- Log P (pH 2.7): 3.94^[a]

Compound: CCOC(=O)C(C#N)=C(NC(C)(C)CSC)c1cc(C)oc1C [Compound 619]
- Log P (pH 2.7): 3.58^[a]

Compound: COC(=O)CC(C)NC(=C(C#N)C(=O)OC)c1cccnc1Cl (centres unmarked) [Compound 620]
- Log P (pH 2.7): 2.11^[a]

Compound: CCC(C)OC(=O)C1(NC(=C(C#N)C(=O)OC)c2cccnc2Cl)CC1 (centres unmarked) [Compound 621]
- Log P (pH 2.7): 2.23^[a]

Compound: CCN(CC)CC(C)NC(=C(C#N)C(=O)OC)c1cccnc1Cl (centres unmarked) [Compound 622]
- Log P (pH 2.7): 0.86^[a]

Compound: CCOC(=O)C1(NC(=C(C#N)C(=O)OC)c2cccnc2Cl)CC1 [Compound 623]
- Log P (pH 2.7): 1.66^[a]

Compound: CCOCC(C)NC(=C(C#N)C(=O)OC)c1cccnc1Cl (centres unmarked) [Compound 624]
- Log P (pH 2.7): 2.42^[a]

Compound: CCOCC(CC)NC(=C(C#N)C(=O)OC)c1cccnc1Cl (centres unmarked) [Compound 625]
- Log P (pH 2.7): 2.76^[a]

Compound: CCCC(COCC)NC(=C(C#N)C(=O)OC)c1cccnc1Cl (centres unmarked) [Compound 626]
- Log P (pH 2.7): 3.15^[a]

Compound: CCOCC(NC(=C(C#N)C(=O)OC)c1cccnc1Cl)C(C)C (centres unmarked) [Compound 627]
- Log P (pH 2.7): 3.11^[a]

Compound: CCOC(=O)C(C#N)=C(NC(C)C(N)=O)c1ccsc1Br (centres unmarked) [Compound 628]
- Log P (pH 2.7): 1.9^[a]

Compound: CCOC(=O)C(C#N)=C(NC(C)C(=O)NC)c1conc1C (centres unmarked) [Compound 629]
- Log P (pH 2.7): 1.57^[a]

Compound: COC(=O)C(C#N)=C(NC(C)CN(C)C)c1sc(C)nc1C(F)(F)F (centres unmarked) [Compound 630]
- Log P (pH 2.7): 1.17^[a]

Compound: COC(=O)/C(C#N)=C(\NCC(C)N)c1sc(C)nc1C(F)(F)F (centres unmarked) [Compound 631]
- Log P (pH 2.7): 0.94^[a]

Compound: CCOC(=O)C(C#N)=C(NC(C)CN)c1cn(C)nc1C(F)(F)F (centres unmarked) [Compound 632]
- Log P (pH 2.7): 1.11^[a]

Compound: COC(=O)C(C#N)=C(NC(C)C(N)=O)c1sc(C)nc1C(F)(F)F (centres unmarked) [Compound 634]
- Log P (pH 2.7): 1.69^[a]

Compound: CCOC(=O)C(C#N)=C(NC(C)C(N)=O)c1cn(C)nc1C(F)(F)F (centres unmarked) [Compound 635]
- Log P (pH 2.7): 1.78^[a]
